In US11008340B2, “Modulators of ROR-gamma” (Vitae Pharmaceuticals, LLC, priority 2015, dated 2021):
Read-outs that look alike come from different tables or passages of the source.

Columns and labels:
[1] = biological target: T1, full-length RORγt in Jurkat cells (Homo sapiens, UniProt P51449); assay: RORγt 5×RORE Assay in Jurkat Cells (Assay 2); type: cell-based; conditions: 5×RORE luciferase reporter
T1 construct: transcriptional activity of the full-length RORγt in Jurkat cells; host or cells: Jurkat cells (ATCC TIB-152)
T1 sequence (P51449 1-497 isoform P51449-2): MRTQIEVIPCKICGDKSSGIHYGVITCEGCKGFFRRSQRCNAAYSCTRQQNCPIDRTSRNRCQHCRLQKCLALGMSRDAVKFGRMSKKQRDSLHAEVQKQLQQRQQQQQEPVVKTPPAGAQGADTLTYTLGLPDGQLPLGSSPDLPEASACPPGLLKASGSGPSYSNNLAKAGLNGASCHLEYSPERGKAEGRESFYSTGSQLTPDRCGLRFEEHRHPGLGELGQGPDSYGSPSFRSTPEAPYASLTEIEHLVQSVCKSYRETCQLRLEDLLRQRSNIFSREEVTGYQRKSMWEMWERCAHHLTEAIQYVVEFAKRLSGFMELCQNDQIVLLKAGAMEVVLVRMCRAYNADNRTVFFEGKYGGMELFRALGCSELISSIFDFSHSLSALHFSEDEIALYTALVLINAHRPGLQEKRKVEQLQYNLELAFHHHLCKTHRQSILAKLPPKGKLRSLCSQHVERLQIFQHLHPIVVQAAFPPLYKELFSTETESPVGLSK
Method: [formula] RORγt 5×RORE Assay in Jurkat Cells (Assay 2)
Compounds described herein were tested for RORγ inverse agonist activity in a cell-based, transcriptional activity assay. Secreted Nanoluc″ luciferase was used as a reporter for transcriptional activity of the full-length RORγt in Jurkat cells (ATCC, Cat. #TIB-152). A reporter plasmid was constructed by inserting 5 repeats of the ROR Response Element (RORE) […] (SEQ ID NO: 1) into a commercially available promoterless plasmid pNL1.3[secNluc] (Promega, Cat. #N1021) using KpnI and HindIII restriction sites. The expression plasmid for RORγt was purchased (Geneocopoeia, Cat. #EX-T6988-M02). Jurkat cells (30 million cells) were transfected with 11 μg of EX-T6988-MO2 and 26 μg of the reporter plasmid in OptiMEM® media using Lipofectamine LTX and Plus™ reagents (Life Technologies, Cat. #15338-100). After 5-6 hrs of incubation at 37° C./5% CO2, the cells were collected, resuspended in phenol-red free RPMI media containing 10% (v/v) delipidated FBS (Hyclone, Cat. #SH30855.03) and dispensed into 96-well clear bottom tissue culture plates (CoStar, Cat. #3603), at 80,000 cells per well. Tested compounds were added to the cells in the same media (final concentration of DMSO was 0.1% (v/v)), and the plates were incubated at 37° C./5% CO2 for 16-18 hrs. Luciferase activity in the conditioned supernatants was determined with NanoGlo® assay reagents (Promega, Cat. #N1130).

[2] = biological target: T2, recombinant RORγ Ligand Binding Domain (LBD) protein (Homo sapiens, UniProt P51449); assay: Radio-Ligand RORγ Binding Assay (Assay 1); conditions: radio-ligand competition, RORγ LBD, read-out: Avg ROR Bind Ki
T2 construct: 6×His; GST
T2 sequence (P51449 269-508 limits assumed): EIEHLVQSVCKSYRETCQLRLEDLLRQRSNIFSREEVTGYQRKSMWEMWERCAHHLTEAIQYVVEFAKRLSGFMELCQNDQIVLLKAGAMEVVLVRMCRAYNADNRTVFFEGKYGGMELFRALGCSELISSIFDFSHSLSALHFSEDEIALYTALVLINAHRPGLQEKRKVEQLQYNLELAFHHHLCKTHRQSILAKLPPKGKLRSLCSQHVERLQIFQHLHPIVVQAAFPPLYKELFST
Method: Radio-Ligand RORγ Binding Assay (Assay 1)
Compounds described herein were tested for ability to bind to RORγ in a cell-free competition assay with commercially available radio-ligand (RL), 25-hydroxy [26,27-^3H]-cholesterol (PerkinElmer, Cat. #NET674250UC), for a ligand binding site on a recombinant RORγ Ligand Binding Domain (LBD) protein expressed as a 6×His-Glutathione-S-Transferase (GST) fusion. The assay was performed in 96-well SPA plates (PerkinElmer, Cat. #1450-401) in 50 mM HEPES buffer, pH 7.4, containing 150 mM NaCl, 5 mM MgCl2, 10% (v/v) glycerol, 2 mM CHAPS, 0.5 mM 3-octylglucopyranoside and 5 mM DTT. Tested compounds were dissolved in DMSO, and semi-log (3.162×) serial dilutions of the compounds were prepared in the same solvent. Two μL of the DMSO solutions were mixed with 28 μL of 8.6 nM 25-hydroxy [26,27-^3H]-cholesterol and 50 μL of 24 nM RORγ LBD. The plate was shaken at 700 rpm for 20 min and incubated for 10 min at rt, after which 40 μL of poly-Lys YSi SPA beads (PerkinElmer, Cat. #RPNQ0010) were added to achieve 50 μg of the beads per well. The plate was incubated on an orbital shaker for 20 min and then for 10 min without agitation at rt. SPA signal for tritium beta radiation was registered on PerkinElmer Microbeta plate reader. […] The percent inhibition vs. concentration data were fit into a four-parameter model, and IC50 values were calculated from the fit as the concentrations corresponding to the inflection points on the dose-response curves. Inhibitory constants (Ki) were calculated using the following equation, where [RL] is the concentration in the assay and KD is a dissociation constant of 25-hydroxy [26,27-^3H]-cholesterol: […]

[3] = 25-hydroxy [26,27-3H]-cholesterol
[4] = Table 20, read-out: Avg ROR γt/5x IC5
[5] = head without unit (Tables 15, 17), read-out: Avg ROR γt/5x IC50
[6] = head without unit (Tables 15, 17)

`CCS(=O)(=O)c1ccc(CNC(=O)c2ccc3c(c2)C(C)(C)CN(Cc2ccc(C#N)cc2)C3C(C)C)cc1` (single isomer, unassigned) [Hy2A-23.1] showed an IC50 ([1]; read-out: Avg ROR γt/5x IC50) of less than 100 nM and a Ki [2, 3] of less than 100 nM.

For `CCS(=O)(=O)c1ccc(CNC(=O)c2ccc3c(c2)CN(c2ncc(-c4ccn(C)c(=O)c4)cn2)C[C@H]3C(C)C)cc1` (single isomer, unassigned) [Hy7-25.1], the IC50 [1, 4] was 100 to 1000 nM and the Ki [2, 3] was less than 100 nM.

Compound `CCS(=O)(=O)c1ccc([C@H](CO)NC(=O)c2ccc3c(OCc4ccc(C(F)(F)F)cc4)nccc3c2)cc1` [Hy1A-7, (R)-N-(1-(4-(ethylsulfonyl)phenyl)-2-hydroxyethyl)-1-((4-(trifluoromethyl)benzyl)oxy)isoquinoline-6-carboxamide] has an IC50 ([1]; read-out: Avg ROR γt/5x IC50) of 100 to 1000 nM and a Ki [2, 3] of less than 100 nM.

Compound `CC[C@H]1CN(c2ncc(-c3ncco3)cn2)Cc2cc(C(=O)NCc3ccc(S(=O)(=O)CC)cc3)ccc21` (single isomer, unassigned) [Hy7-31.2] has an IC50 [1, 4] greater than 1000 nM and a Ki [2, 3] of less than 100 nM.

In the case of `CCS(=O)(=O)c1ccc(CNC(=O)c2cnc3c(c2)CCN(Cc2ccc(C#N)cc2)C3C(C)C)cc1` (single isomer, unassigned) [Hy2B-7.1], the IC50 [1, 5] is reported as 100 to 1000 nM and the Ki [2, 6] is reported as less than 100 nM.

`CCS(=O)(=O)c1ccc(CNC(=O)c2ccc3c(c2)CCN(Cc2ccc(C#N)cn2)[C@H]3C(C)C)cc1` (single isomer, unassigned) [Hy2A-16.1] showed an IC50 ([1]; read-out: Avg ROR γt/5x IC50) of less than 100 nM and a Ki [2, 3] of less than 100 nM.

In the case of `CCS(=O)(=O)c1ccc(CNC(=O)c2cc3ccnc(OCc4ccc(C(F)(F)F)cc4)c3n2C)cc1` [Hy4-3, N-(4-(ethylsulfonyl)benzyl)-1-methyl-7-((4-(trifluoromethyl)benzyl)oxy)-1H-pyrrolo[2,3-c]pyridine-2-carboxamide], the IC50 [1, 5] is reported as 100 to 1000 nM and the Ki [2, 6] is reported as less than 100 nM.

For `CCS(=O)(=O)c1ccc(CNC(=O)c2ccc3c(c2)CCN(c2ncc(C(F)(F)F)cn2)C3C(C)C)cc1` (stereo not drawn) [Hy2A-2, N-(4-(ethylsulfonyl)benzyl)-1-isopropyl-2-(5-(trifluoromethyl)pyrimidin-2-yl)-1,2,3,4-tetrahydroisoquinoline-6-carboxamide], the IC50 ([1]; read-out: Avg ROR γt/5x IC50) was greater than 1000 nM and the Ki [2, 3] was 100 to 1000 nM.

In the case of `CC[C@@H]1CN(c2ncc(C(F)(F)F)cn2)Cc2cc(C(=O)N[C@H](CO)c3ccc(S(=O)(=O)CC)cn3)ccc21` (single isomer, unassigned) [Hy7-18.2], the IC50 [1, 4] is reported as greater than 1000 nM and the Ki [2, 3] is reported as less than 100 nM.

`CCS(=O)(=O)c1ccc(CNC(=O)c2ccc3c(c2)CN(c2ncc(-c4ccc(=O)n(C)c4)cn2)C[C@H]3C(C)C)cc1` (single isomer, unassigned) [Hy7-24.1] showed an IC50 [1, 4] of less than 100 nM and a Ki [2, 3] of less than 100 nM.

`CC[C@@H]1CN(c2ncc(C(F)(F)F)cn2)Cc2cc(C(=O)NCc3ccc(S(=O)(=O)CC)cc3)ccc21` (single isomer, unassigned) [Hy7-9.1] gave an IC50 [1, 4] of less than 100 nM and a Ki [2, 3] of less than 100 nM.

In the case of `CCS(=O)(=O)c1ccc(CNC(=O)c2ccc3c(c2)CN(c2ncc(C4CC4)cn2)C[C@H]3C(C)C)cc1` (single isomer, unassigned) [Hy7-4.1], the IC50 [1, 4] is reported as 100 to 1000 nM and the Ki [2, 3] is reported as less than 100 nM.

In the case of `CC[C@@H]1CN(c2ncc(Cl)cn2)Cc2cc(C(=O)N[C@@H](CO)c3ccc(S(=O)(=O)CC)cc3)ccc21` (single isomer, unassigned) [Hy7-6.1], the IC50 [1, 4] is reported as greater than 1000 nM and the Ki [2, 3] is reported as less than 100 nM.

`CC[C@@H]1CN(c2ncc(-c3ncco3)cn2)Cc2cc(C(=O)N[C@@H](CO)c3ccc(S(=O)(=O)CC)cc3)ccc21` (single isomer, unassigned) [Hy7-33.1] was tested, and the IC50 [1, 4] was less than 100 nM and the Ki [2, 3] was less than 100 nM.

`CCS(=O)(=O)c1ccc([C@H](CO)NC(=O)c2ccc3c(OC[C@H]4CC[C@H](C(F)(F)F)CC4)nc(Cl)cc3c2)cc1` [Hy1A-11, 3-chloro-N-((R)-1-(4-(ethylsulfonyl)phenyl)-2-hydroxyethyl)-1-(((1r,4R)-4-(trifluoromethyl)cyclohexyl)methoxy)isoquinoline-6-carboxamide] was tested, and the IC50 ([1]; read-out: Avg ROR γt/5x IC50) was less than 100 nM and the Ki [2, 3] was less than 100 nM.
